In data set [1] the test system is Rattus norvegicus. The experiment in a line: Inhibition of house dust mites allergan-induced eosinophil recruitment in Brown Norway rat model at 25 to 35 ug/kg administered via intratracheal aerosolization 2 hrs prior to allergan challenge measured after 48 hrs by bronchoalveolar lavage method. The following applies: Lung. It is filed as functional, organism-based.

A short description of data set [2]: Metabolic stability in rat L2 cells after 2 hrs by LC-MS-MS analysis. In kind it is ADME, cell-based. The settings on record: l2, 2 h.
Data set [3] is described as follows: Metabolic stability in rat NR8383 cells after 2 hrs by LC-MS-MS analysis. In kind it is ADME, cell-based. The settings on record: nr8383, 2 h.

The structures appear in SMILES notation. Active and inactive are the calls of the source. No cut-off for these calls is given here.

On to `CC(C)[C@H](NC(=O)[C@H](C)NC(=O)[C@H](Cc1ccccc1)NC(=O)c1ccccc1)C(=O)C(=O)NCC(=O)N1CCOCC1`, for which the inhibition entry in data set [1] was “Active”. For the same compound, the Stability entry in data set [2] and in data set [3] was “Stable” in each case.

Take `CC(C)[C@H](NC(=O)[C@H](C)NC(=O)[C@H](Cc1ccccc1)NC(=O)c1cccc2ccccc12)C(=O)C(=O)NCC(=O)N1CCN(C)CC1`: the inhibition entry in data set [1] was “Active”. The Stability result in data set [2] and in data set [3] was “Stable” each time.

In the case of `CC(C)[C@H](NC(=O)[C@H](C)NC(=O)[C@@H](NC(=O)c1ccncc1)C(C)(C)C)C(=O)C(=O)NC1CCCCC1`, the inhibition entry in data set [1] is “Active”. Also, the Stability entry in data set [2] and in data set [3] was “Stable” in each case.

On to `CC(C)[C@H](NC(=O)[C@H](C)NC(=O)[C@H](Cc1ccccc1)NC(=O)c1ccccc1)C(=O)C(=O)NCC(=O)N1CC[N+](C)(C)CC1.O=C[O-]`, for which the Stability result in data set [2] and in data set [3] was “Stable” in each case.

For the compound `CC(C)[C@H](NC(=O)[C@H](C)NC(=O)[C@@H](NC(=O)C1CC[N+](C)(C)CC1)C(C)(C)C)C(=O)C(=O)NCc1ccccc1.O=C[O-]`, the Stability entry in data set [2] and in data set [3] was “Stable” in each case.

Turning to `CC(C)[C@H](NC(=O)[C@H](C)NC(=O)[C@H](Cc1ccccc1)NC(=O)c1ccccc1)C(=O)C(=O)NCC(=O)N1CCN(C)CC1`, the inhibition entry in data set [1] was “Active”. The Stability result in data set [2] and in data set [3] was “Stable” throughout.

Regarding `CC(C)[C@H](NC(=O)[C@H](C)NC(=O)[C@@H](NC(=O)c1ccnc2ccccc12)C(C)(C)C)C(=O)C(=O)NCc1ccccc1`, the inhibition result in data set [1] was “Active”. Moreover, the Stability entry in data set [2] and in data set [3] was “Stable” each time.

`CC(C)[C@H](NC(=O)[C@H](C)NC(=O)[C@@H](NC(=O)c1ccccc1)C(C)(C)C)C(=O)C(=O)NCc1ccccc1`: the Stability entry in data set [2] and in data set [3] was “Stable” in each case.

The values are drawn from ChEMBL document CHEMBL3351248, “The discovery of potent, selective, and reversible inhibitors of the house dust mite peptidase allergen Der p 1: an innovative approach to the treatment of allergic asthma” (J Med Chem, 2014).
